Data published in patent US6855802B1, “Mutated peptide compounds, derived from hsp70, useful in cancer immunotherapy” (Institut Gustave Roussy, priority 1998, dated 2005).

Key:
[1] = system: autologous cell line transformed with EBV / 11C2 CTL; assay: Peptide recognition assay: chromium release, lysis by 11C2 CTL of peptide-incubated autologous EBV-transformed cells; assay type: cell-based, human; settings: for EC50: 11C2 CTL, E/T 31/1, 51Cr-labeled autologous EBV-transformed cells incubated 1 hour with peptide, 4 h release, read-out: maximum half-lysis (peptide concentration); for recognition by 11C2 CTL: peptides carrying the HLA-A*0201 binding motif, 18 peptides assayed
Experimental: 2000 cells transformed with EBV and labeled with ^51Cr were incubated for 1 hour in the presence of the indicated hsp70-2 peptides (SEQ ID NOS. 2, 7, 1, and 8) at multiple concentrations. The 11C2 CTL was then added at an effector/target ratio (E/T) of 31/1. Chromium release was measured 4 hours later. The asterisks indicate the mutated amino acids.
The cytotoxicity assays were carried out using the standard 4-hour chromium release assay, as described above, Angevin et al, (1997). In summary, 2×10^3 51Cr-labeled target cells were incubated for 4 hours at 37° C., with the effector cells at various E/T ratios, in a final volume of 200 μl. With regard to lysis inhibition by the mAbs, the target cells were preincubated for two hours in the presence of saturating concentrations of mAb, before adding the effector cells. At the end of the incubation, 40 μl of supernatant were transferred to Lumaplate 96 solid scintillation plates (Packard Instruments, Meriden, Conn.), were dried overnight and counted in a beta-radioactivity counter (Packard Instruments).
In the screening assay, the peptides used were synthesized by “PepSet technology” (Chiron Technologies, Suresnes, France). For the functional assays, the peptides were synthesized on solid phase using F-moc (temporary NH2-terminal protection), and were purified by preparative HPLC. […] The lyophilized peptides were dissolved in […] in water, and conserved at −20° C. The peptides were used in a chromium release assay. 2000 autologous cells transformed with EBV, and labeled with ^51Cr, were incubated for 1 hour at 37° C. on 96-well plates, with diverse concentrations of peptides, before adding 11C2 CTLs.

[2] = system: CD8+ cells from HLA-A2-positive donors; assay: Elispot-IFNγ assay with CD8+ cells and peptide-loaded T2 cells; assay type: cell-based, human; settings: interferon gamma secretion, no in vitro culturing or cytokines
HLA-A2 (HLA-A*0201) = target: T1, HLA-A2 (HLA-A*0201) (human); assay: T2 cell HLA-A2 up-regulation, flow cytometry with mAb MA2.1
T1 construct: whole, on cells; also called HLA-A2.1
Experimental: T2 cells were incubated at 26° C. for 16 hours in serum-free medium, with or without peptide at a concentration of 20 μm. Next, the peptides (SEQ ID NOS. 2, 7, 1, and 8) were again added, and the cells were incubated at 37° C. […] The amino acid sequences of the peptides are represented. The mutated amino acid is represented by an asterisk.

binding result (HLA-A2 (HLA-A*0201))	Molecule	EC50 [1]	recognition by 11C2 CTL [1]	induction of human CD8 lymphocytes from healthy HLA-A2+ individuals [2]
	SLFEGIDFYT [SEQ ID NO: 7, wild-type hsp70-2 decapeptide 286-295, reference compound]	50 nM	recognizes	
	SLFEGIDIY [SEQ ID NO: 1, mutated hsp70-2 nonapeptide, amino acids 286 to 294, isoleucine at position 293]	500 nM	recognized	possible to induce
	SLFEGIDIYT [SEQ ID NO: 2, mutated hsp70-2 decapeptide 286-295 carrying the mutant isoleucine residue at position 8]	0.05 nM	recognized	possible to induce
	wild-type nonapeptide 286-294: wild-type hsp70-2 nonapeptide, amino acids 286-294 (SLFEGIDFY; listed as Homo sapiens) [reference compound]		not	
binds	SLFEGIDFYT (Synthetic peptide) [wild-type hsp70-2 decapeptide 286-295 SLFEGIDFYT]			
binds	SLFEGIDIYT (Synthetic peptide; carries the tumour mutation (isoleucine at hsp70 position 293, position 8 of the peptide)) [mutated hsp70-2 decapeptide 286-295 SLFEGIDIYT]			
binds	SLFEGIDFY (2, 7, 1 and 8) [wild-type hsp70-2 nonapeptide 286-294]			
binds	SLFEGIDIY (Synthetic peptide; isoleucine at hsp70 position 293) [mutated hsp70-2 nonapeptide 286-294 SLFEGIDIY]			
